Assay results taken from patent publication US20130102629A1, “ANALOGUES FOR THE TREATMENT OR PREVENTION OF FLAVIVIRUS INFECTIONS” (VERTEX PHARMACEUTICALS INCORPORATED, priority 2010, published 2013).

Legend:
[1] = test system: HCV (1b) replicon, Huh-ET cells; experiment: Cell-based luciferase reporter HCV (1b) RNA replication assay; details: Hepatitis C virus; for EC50: HCV genotype 1b replicon, read-out: EC50_1b; for IC50: sub-genomic replicon 1b cell line
Excerpt: Cell-Based Luciferase Reporter HCV (Ib) RNA Replication Assay Cell Culture
Replicon cell lines Huh-5.2 are derived from the Huh-7 hepatocarcinoma cell line are maintained in culture as generally described in Krieger, N; Lohmann, V; Bartenschlager, R. Enhancement of hepatitis C virus RNA replication by cell culture-adaptive mutations. J. Virol. 2001, 75, 4614-4624. The Huh-5.2 cells contain the highly cell culture-adapted replicon I389luc-ubi-neo/NS3-3′/5.1 construct that carries, in addition to the neomycin gene, an integrated copy to the firefly luciferase gene (Krieger, N; Lohmann, V; Bartenschlager, R. Enhancement of hepatitis C virus RNA replication by cell culture-adaptive mutations. J. Virol. 2001, 75, 4614-4624). This cell line allows measurement of HCV RNA replication and translation by measuring luciferase activity. It has been previously shown that the luciferase activity tightly follows the replicon RNA level in these cells (Krieger, N; Lohmann, V; Bartenschlager, R. Enhancement of hepatitis C virus RNA replication by cell culture-adaptive mutations. J. Virol. 2001, 75, 4614-4624). The Huh-ET cell line has the same features as those mentioned for Huh-5.2 cell line, except that ET cells are more robust and contain an adaptative mutation in the HCV NS4B gene instead of NS5A. Both cell lines are maintained in cultures at a sub-confluent level (<85%) as the level of replicon RNA is highest in actively proliferating cells. The culture media used for cell passaging consist of DMEM (Gibco BRL Laboratories, Mississauga, ON, Canada) supplemented with 10% foetal bovine serum with 1% penicilin/streptomycin, 1% glutamine, 1% sodium pyruvate, 1% non-essential amino acids, and 180 μg/ml of G418 final concentration. Cells are incubated at 37° C., in an atmosphere of 5% CO2 and passaged twice a week to maintain sub-confluence.
Approximately 3000 viable Huh-ET cells (100 μl) are plated per well in a white opaque 96-well microtiter plate. The cell culture media used for the assay is the same as described above except that it contains no G418 and no phenol red. After an incubation period of 3-4 hours at 37° C. in a 5% CO2 incubator, compounds (100 μl) are added at various concentrations. Cells are then further incubated for 4 days at 37° C. in a 5% CO2 incubator. Thereafter, the culture media is removed and cells are lysed by the addition of 95 μL of the luciferase buffer (luciferin substrate in buffered detergent). Cell lysates are incubated at room temperature and protected from direct light for at least 10 minutes. Plates are read for luciferase counts using a luminometer (Wallac MicroBeta Trilux, Perkin Elmer™, MA, USA).
Curves are fitted to data points using nonlinear regression analysis, and IC50s are interpolated from the resulting curve using GraphPad Prism software, version 2.0 (GraphPad Software Inc., San Diego, Calif., USA).

[2] = test system: sub-genomic HCV replicon of genotype 1a (cell line W11.8); experiment: Activity determination using the ELISA and the sub-genomic replicon 1a cell line; assay type: cell-based; details: Hepatitis C virus
Excerpt: Activity Determination Using the ELISA and the Sub-Genomic Replicon 1a Cell Line
The cell line W11.8 containing the sub-genomic HCV replicon of genotype 1a is used to determine the potency of the drugs. The RNA replication in presence of different drug concentrations is indirectly measured in this cell line by the level of NS5A protein content upon drug treatment for four days. It is shown that the level of the NS5A protein correlates well with the level of HCV RNA in the replicon cell line. Cells are split twice a week in order to keep the confluence state below 85% of the culture flask surface area. The culture media used for cell passaging consists of DMEM-10% foetal bovine serum with 100 UI/mL penicillin, 100 μg/mL streptomycin, 2 mM glutamine, 1 mM sodium pyruvate, non-essential amino acids (1×) and 600 μg/mL of G418 final concentrations. Monolayer of the W11.8 cells is trypsinized and cells are counted. […] Then, substrate solution (100 μl, SuperSignal ELISA Pico Chemiluminescent Substrate, Fisher Cat. No. 37069) is added in each well and plates are incubated 60 minutes at room temperature prior to reading the luminescence (relative light units) on the Analyst HT plate reader. The percentage of inhibition at each drug concentration tested (in duplicate) is calculated.

Structure (SMILES)	EC50 [1]	IC50 [2]	IC50 [1]
COC(=O)N[C@H](C(=O)N1C[C@@H](C)C[C@H]1c1ncc(-c2ccc(-c3ccc(-c4ccc5nc([C@@H]6C[C@H](C)CN6C(=O)[C@@H](NC(=O)OC)C(C)C)oc5c4)cc3)cc2)[nH]1)C(C)C [Compound 1]	≤ 5 nM		
COC(=O)N[C@H](C(=O)N1C[C@@H](C)C[C@H]1c1nc2ccc(-c3cc4sc(-c5c[nH]c([C@@H]6C[C@H](C)CN6C(=O)[C@@H](NC(=O)OC)C(C)C)n5)cc4s3)cn2n1)C(C)C [Compound 15]	≤ 5 nM		
COC(=O)N[C@H](C(=O)N1[C@@H](C)CC[C@H]1c1nc(-c2ccc(-c3ccc(-c4cnc5[nH]c([C@@H]6CC[C@H](C)N6C(=O)[C@@H](NC(=O)OC)C(C)C)nc5c4)cc3)cc2)c[nH]1)C(C)C [Compound 4]	≤ 5 nM	0.025 nM	0.07 nM
COC(=O)N[C@H](C(=O)N1C[C@@H](C)C[C@H]1c1ncc(-c2ccc(-c3ccc(-c4ccc5sc([C@@H]6C[C@H](C)CN6C(=O)[C@@H](NC(=O)OC)C(C)C)nc5c4)cc3)cc2)[nH]1)C(C)C [Compound 3]	≤ 5 nM		
COC(=O)N[C@H](C(=O)N1C[C@@H](C)C[C@H]1c1cc2cc(-c3ccc(-c4ccc(-c5cnc([C@@H]6C[C@H](C)CN6C(=O)[C@@H](NC(=O)OC)C(C)C)[nH]5)cc4)cc3)ccc2[nH]1)C(C)C [Compound 5]	≤ 5 nM		
COC(=O)N[C@H](C(=O)N1C(c2nc3cc(-c4ccc(-c5ccc(-c6c[nH]c([C@@H]7CC[C@H](C)N7C(=O)[C@@H](NC(=O)OC)C(C)C)n6)cc5)cc4)cnc3[nH]2)CC[C@@H]1C)C(C)C (stereo partly drawn) [Compound 6]	≤ 5 nM		
COC(=O)N[C@H](C(=O)N1C[C@@H](C)C[C@H]1c1nc(-c2ccc(-c3ccc(-c4cnc5[nH]c([C@@H]6C[C@H](C)CN6C(=O)[C@@H](NC(=O)OC)C(C)C)nc5c4)cc3)cc2)c[nH]1)C(C)C [Compound 16, Methyl N-[(1S)-1-[(2S,4S)-2-[4-[4-[4-[2-[(2S,4S)-1-[(2S)-2-(methoxycarbonylamino)-3-methyl-butanoyl]-4-methyl-pyrrolidin-2-yl]-3H-imidazo[4,5-b]pyridin-6-yl]phenyl]phenyl]-1H-imidazol-2-yl]-4-methyl-pyrrolidine-1-carbonyl]-2-methyl-propyl]carbamate]	≤ 5 nM	0.01 nM	0.01 nM
COC(=O)N[C@H](C(=O)N1C[C@@H](C)C[C@H]1c1cc2ccc(-c3ccc(-c4ccc(-c5cnc([C@@H]6C[C@H](C)CN6C(=O)[C@@H](NC(=O)OC)C(C)C)[nH]5)cc4)cc3)cc2[nH]1)C(C)C [Compound 2]	≤ 5 nM		
